US20250115943A1, “SYSTEM AND METHOD FOR ANTIMICROBIAL SUSCEPTIBILITY TESTING” (priority 2023, published 2025)
In brackets after ≈: the same amount, converted by molar mass. Read-outs that look alike come from different tables or passages of the source.

Tests used:
[1] = tested on: E. coli ATCC 25922; test: CytoSPAR BLAST antibiotic susceptibility test; assay type: cell-based; conditions: for S, I, R: susceptible, intermediate, resistant category; for MIC: Escherichia coli
Description: (§1) The disclosed technology, which is referred to as the CytoSPAR BLAST (Bacteria Labeling Antibiotic Susceptibility Test) system, is used to quantitatively assess bacterial minimal inhibitory concentration of antibiotics for in vitro susceptibility testing. Used as an aid in diagnosis for clinicians in determining potential treatment options for patients suspected of having a microbial infection, BLAST is intended to determine susceptibility of microorganisms to the listed antibiotics (or other antimicrobials) according to manufacturer's standards. The system is intended for use with clinical isolates from liquid culture and colonies grown on agar (solid medium) or directly from urine samples. Certain implementations of BLAST determine antibiotic susceptibility for a wide range of bacteria obtained from various types of patient samples, including samples from individuals suffering from urinary tract infections. The disclosed technology includes a high-throughput assay that directly detects bacterial susceptibility to a library of frequently used antibiotics and covers both Gram-negative and Gram-positive bacteria.
(§2) The test incorporates a non-canonical amino acid (ncAA) into newly produced proteins. The incorporated ncAA includes a reactive group which allows a specific modification and detection of the living bacteria. The assay involves bacterial incorporation of the ncAA, a chemical reaction between a reactive group and a fluorophore-tagged ligand, and detection of the newly fluorescent-tagged bacteria using a fluorescent plate reader or functionally similar device. The ncAA is added to bacterial growth media and is incorporated into newly synthesized bacterial proteins. The reactive groups on the ncAA are not naturally found in bacteria and act as a specific reactive group for bacteria undergoing active protein synthesis. […] The entire process is performed in a microtiter filter plate for high-throughput scale-up. Alternatively, a normal 96-well plate can also be used in which case centrifugation is used to wash the plate instead of filtration.
(§3) In an example embodiment, bacterial samples are first diluted and incubated in acclimatization media. After treatment with one or more antimicrobials, the ncAA is added and is taken up by living bacteria during protein biosynthesis in a process called labeling. […] The Click-Chemistry reaction between the alkyne group of the ncAA and the azide group of the fluorophore-tagged ligand requires the presence of copper in the reduced state-copper (I). In other implementations, the functional groups of the click chemistry reaction can be changed so that the ncAA has the azide group and the dye has the alkyne group. […] Other reducing agents may be used in the BLAST assay, for example, aldoses (sugars) including glyceraldehyde, glucose, and ribose to replace sodium ascorbate. Likewise, alternate chelators may be used (e.g., histidine in place of BTTAA). In some implementations, metal-free click chemistry reactions are performed without using copper.
(§4) Using the BLAST system, tests can be performed on isolates or direct urine samples. Isolates may be from urine, blood, or other body fluids. Isolated bacteria may be either Gram-positive or Gram-negative. In an example implementation, living bacterial samples in acclimatization media (Buffer A) are distributed in a microtiter filter plate, wherein certain predetermined wells include antibiotics of interest at different concentrations. These antibiotics are arrayed with increasing concentrations in adjacent wells so that the bacterial response can be measured against each specific concentration. The response is measured quantitatively, and a value that corresponds to the ability of the bacteria to metabolize and grow is measured.

[2] = tested on: S. aureus ATCC 29213; test: CytoSPAR BLAST antibiotic susceptibility test; assay type: cell-based; conditions: for S, I, R: susceptible, intermediate, resistant category; for MIC: Staphylococcus aureus
Description: as §1, §2, §3, §4

[3] = tested on: S. aureus ATCC 29213; conditions: CLSI M100-Ed34E; cited from earlier work
[4] = tested on: E. coli ATCC 25922; conditions: CLSI M100-Ed34E, cited from earlier work
[5] = tested on: P. mirabilis LSI 4933; test: reference broth microdilution (rBMD); assay type: cell-based; conditions: Proteus mirabilis, LSI4933
Method: (§5) Following optimization of the BLAST assay, two other tests were performed in which 12 antibiotics (covering different classes) and 8 bacterial strains (Gram-positive and Gram-negative) were assayed using the same method as described above. Different bacterial strains were tested against different antibiotics and for each pair tested, the BLAST MIC value was compared to the CLSI QC range where available, or to the reference broth microdilution (rBMD) MIC which was determined in parallel with the BLAST assay following the CLSI protocols (see references [9]).

[6] = tested on: K. pneumoniae LSI CT1045; test: reference broth microdilution (rBMD); assay type: cell-based; conditions: Klebsiella pneumoniae, LSICT1045
Method: as §5

[7] = tested on: K. pneumoniae LSI 4552; test: reference broth microdilution (rBMD); assay type: cell-based; conditions: Klebsiella pneumoniae, LSI4552
Method: as §5

[8] = tested on: E. coli LSI 770; test: reference broth microdilution (rBMD); assay type: cell-based
Method: as §5
The inoculated urine cultures were incubated overnight at 35+2° C. Each urine culture was centrifuged, and the sediment used to prepare the BLAST inoculum of 5.0×10^5 CFU/mL to start the assay as described in the protocols section. […] The spiked urine samples were tested in parallel with isolates and the resultant BLAST MIC values were compared. In addition to the BLAST test, all the samples were also tested using the reference broth microdilution (rBMD) method and the MIC values were compared.

[9] = tested on: P. mirabilis LSI 4698; test: reference broth microdilution (rBMD); assay type: cell-based; conditions: Proteus mirabilis, LSI4698
Method: Different bacterial strains were tested against different antibiotics and for each pair tested, the BLAST MIC value was compared to the CLSI QC range where available, or to the reference broth microdilution (rBMD) MIC which was determined in parallel with the BLAST assay following the CLSI protocols (see references [8] [9]).

[10] = tested on: P. mirabilis LSI 4933; test: CytoSPAR BLAST antibiotic susceptibility test; assay type: cell-based
Description: as §1, §2, §3, §4

[11] = tested on: E. coli LSI 770; test: CytoSPAR BLAST antibiotic susceptibility test; assay type: cell-based; conditions: E. coli LSI 770; for MIC: Escherichia coli, LSI770
Description: as §1, §2, §3, §4

[12] = tested on: K. pneumoniae LSI CT1045; test: CytoSPAR BLAST antibiotic susceptibility test; assay type: cell-based; conditions: susceptible, intermediate, resistant category
Description: as §1, §2, §3, §4

[13] = tested on: P. mirabilis LSI 4698; test: CytoSPAR BLAST antibiotic susceptibility test; assay type: cell-based
Description: as §1, §2, §3, §4

[14] = tested on: K. pneumoniae LSI 4552; test: CytoSPAR BLAST antibiotic susceptibility test; assay type: cell-based
Description: as §1, §2, §3, §4

[15] = ATCC25922, Table 6, optimized BLAST, cutoff 0.8, read-out: MIC BLAST
[16] = ATCC29213, Table 6, S. aureus ATCC 29213, optimized BLAST, cutoff 0.8, read-out: MIC BLAST
[17] = susceptible, intermediate, resistant category

C[C@@H](O)[C@H]1C(=O)N2C(C(=O)O)=C(S[C@@H]3CN[C@H](C(=O)N(C)C)C3)[C@H](C)[C@H]12 [Meropenem, meropenem]
S, I, R [1]: Susceptible | S, I, R ([2]; S. aureus ATCC 29213): Susceptible

CO/N=C(\C(=O)N[C@@H]1C(=O)N2C(C(=O)O)=C(COC(N)=O)CS[C@H]12)c1ccco1 [Cefuroxime, cefuroxime]
MIC CLSI QC Range [3]: 0.5 to 2 µg/mL | MIC [1, 15]: 4 µg/mL (≈ 9.43 µM) | S, I, R [1]: Susceptible | S, I, R ([2]; S. aureus ATCC 29213): Susceptible | MIC [2, 16]: 0.25 µg/mL (≈ 0.589 µM)

CC1=C(C(=O)O)N2C(=O)[C@@H](NC(=O)[C@H](N)c3ccccc3)[C@H]2SC1 [Cephalexin, cephalexin]
MIC CLSI QC Range [3]: 0.25 to 1 µg/mL | MIC CLSI QC Range [4]: 1.0 to 4.0 µg/mL | MIC ([1]; ATCC25922, read-out: MIC BLAST, Table 6, optimized BLAST, cutoff 0.8): 16 µg/mL (≈ 46.1 µM) | S, I, R [1]: Susceptible | S, I, R ([2]; S. aureus ATCC 29213): Susceptible | MIC ([2]; ATCC29213, read-out: MIC BLAST, Table 6, S. aureus ATCC 29213, optimized BLAST, cutoff 0.8): 1 µg/mL (≈ 2.88 µM)

CC1(C)S[C@@H]2[C@H](NC(=O)[C@H](N)c3ccccc3)C(=O)N2[C@H]1C(=O)O [Ampicillin, ampicillin]
MIC CLSI QC Range [3]: 0.5 to 2 µg/mL | MIC [1, 15]: 4 µg/mL (≈ 11.4 µM) | S, I, R [1]: Susceptible | S, I, R ([2]; S. aureus ATCC 29213): Susceptible

C[C@H]1c2cccc(O)c2C(=O)C2=C(O)[C@]3(O)C(=O)C(C(N)=O)=C(O)[C@@H](N(C)C)[C@@H]3[C@@H](O)[C@@H]21 [Doxycycline, doxycycline]
MIC [5]: 4 µg/mL (≈ 9 µM) | MIC [6]: 8 µg/mL (≈ 18 µM) | MIC [7]: 2 µg/mL (≈ 4.5 µM) | MIC ([8]; Escherichia coli, LSI770): 64 µg/mL (≈ 144 µM) | MIC rBMD ([8]; Table 8, E. coli LSI 770, geometric mean MIC rounded to nearest 2-fold dilution, n = 3): 64 µg/mL (≈ 144 µM) | MIC [9]: 32 µg/mL (≈ 72 µM) | MIC CLSI QC Range ([4]; listed as doxycycline): 0.5 to 2 µg/mL | MIC CLSI QC Range [4]: 0.5 to 2.0 µg/mL | MIC ([1]; ATCC25922, Table 7, read-out: MIC BLAST): 0.14 µg/mL (≈ 0.315 µM) | MIC ([1]; ATCC25922, Table 8, isolates, 5 × 10^5 CFU/mL, read-out: MIC BLAST Isolates): 0.14 µg/mL (≈ 0.315 µM) | MIC ([1]; ATCC25922, Table 8, spiked urine sample, 5 × 10^5 CFU/mL, read-out: MIC BLAST Spiked Urine): 0.28 µg/mL (≈ 0.63 µM) | S, I, R [1]: Susceptible | MIC ([10]; Proteus mirabilis, LSI4933, Table 7): 1.1 µg/mL (≈ 2.48 µM) | S, I, R [10, 17]: Susceptible | S, I, R [11, 17]: Resistant | MIC ([11]; Table 7, read-out: MIC BLAST): 71 µg/mL (≈ 160 µM) | MIC ([11]; Table 8, isolates, 5 × 10^5 CFU/mL, read-out: MIC BLAST Isolates): 71 µg/mL (≈ 160 µM) | MIC ([11]; Table 8, spiked urine sample, 5 × 10^5 CFU/mL, read-out: MIC BLAST Spiked Urine): 71 µg/mL (≈ 160 µM) | S, I, R [12]: Resistant | MIC ([13]; Proteus mirabilis, LSI4698, Table 7): 4.4 µg/mL (≈ 9.9 µM) | S, I, R [13, 17]: Susceptible | MIC ([14]; Klebsiella pneumoniae, LSI4552, Table 7): 1 µg/mL (≈ 2.25 µM) | S, I, R [14, 17]: Susceptible | S, I, R ([2]; S. aureus ATCC 29213): Susceptible | MIC ([2]; ATCC29213, S. aureus ATCC 29213, 5×10^6 CFUs/mL, cutoff 0.8, FIGS. 19-21, read-out: BLAST MIC): < 0.0625 µg/mL | MIC ([2]; ATCC29213, Table 7, S. aureus ATCC 29213, read-out: MIC BLAST): 0.02 µg/mL (≈ 0.045 µM) | MIC ([2]; ATCC29213, Table 8, S. aureus ATCC 29213, isolates, 5 × 10^5 CFU/mL, read-out: MIC BLAST Isolates): 0.02 µg/mL (≈ 0.045 µM) | MIC ([2]; ATCC29213, Table 8, S. aureus ATCC 29213, spiked urine sample, 5 × 10^5 CFU/mL, read-out: MIC BLAST Spiked Urine): 0.02 µg/mL (≈ 0.045 µM)

CO/N=C(\C(=O)N[C@@H]1C(=O)N2C(C(=O)O)=C(CSc3nc(=O)c(=O)[nH]n3C)CS[C@H]12)c1csc(N)n1 [Ceftriaxone, ceftriaxone]
S, I, R [1]: Susceptible | S, I, R ([2]; S. aureus ATCC 29213): Susceptible | MIC [2, 16]: 1 µg/mL (≈ 1.8 µM)

CO[C@@]1(NC(=O)Cc2cccs2)C(=O)N2C(C(=O)O)=C(COC(N)=O)CS[C@@H]21 [Cefoxitin, cefoxitin]
MIC [1, 15]: 4 µg/mL (≈ 9.36 µM) | S, I, R [1]: Susceptible | S, I, R ([2]; S. aureus ATCC 29213): Susceptible | MIC [2, 16]: 1 µg/mL (≈ 2.34 µM)
